In US12667557B2, “Method for treating EGFR-TKI-resistant non-small cell lung cancer by administration of anti-HER3 antibody-drug conjugate” (priority 2017, dated 2026):

Legend:
topoisomerase I = target: T1, topoisomerase I (Homo sapiens, UniProt P11387); settings: Ogitani Y. et al., Clinical Cancer Research, 2016; 22(20):5097-5108; cited from earlier work
T1 sequence (P11387 1-765): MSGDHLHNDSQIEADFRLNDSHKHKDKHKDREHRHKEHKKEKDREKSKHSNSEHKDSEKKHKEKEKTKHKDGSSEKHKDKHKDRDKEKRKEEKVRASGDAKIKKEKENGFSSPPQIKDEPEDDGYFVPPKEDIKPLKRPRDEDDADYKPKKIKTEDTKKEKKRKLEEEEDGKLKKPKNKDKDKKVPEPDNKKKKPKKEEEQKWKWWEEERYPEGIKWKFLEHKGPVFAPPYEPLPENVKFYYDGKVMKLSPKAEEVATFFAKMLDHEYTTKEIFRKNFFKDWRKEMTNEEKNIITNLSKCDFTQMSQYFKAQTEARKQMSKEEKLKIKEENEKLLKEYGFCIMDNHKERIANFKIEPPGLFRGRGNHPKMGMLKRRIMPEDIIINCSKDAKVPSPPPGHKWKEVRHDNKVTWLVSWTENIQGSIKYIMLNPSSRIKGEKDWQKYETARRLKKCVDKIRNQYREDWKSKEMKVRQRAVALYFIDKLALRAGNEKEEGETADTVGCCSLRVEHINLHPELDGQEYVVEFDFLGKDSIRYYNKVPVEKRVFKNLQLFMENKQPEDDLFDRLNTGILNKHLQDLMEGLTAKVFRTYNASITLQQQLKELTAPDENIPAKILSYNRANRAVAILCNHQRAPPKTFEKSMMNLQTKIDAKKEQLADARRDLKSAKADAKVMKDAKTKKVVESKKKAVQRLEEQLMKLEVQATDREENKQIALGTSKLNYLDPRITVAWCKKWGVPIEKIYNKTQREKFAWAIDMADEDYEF

cell strain HCC827GR5 [1] = assay: Cell proliferation suppressing activity (CellTiter Glo) against cell strain HCC827GR5; assay type: cell-based, human; settings: 7th day of treatment
Description: Cell strain HCC827GR5 was cultured in a medium obtained by adding gefitinib at a final concentration of 1 μM into the aforementioned medium.
Cell strain HCC827GR5 was cultured in a medium obtained by adding gefitinib at a final concentration of 1 μM into RPMI1640 medium (manufactured by Sigma-Aldrich Corp.) containing R10 medium (10% fetal bovine serum and 1% penicillin-streptomycin B (manufactured by Wako Pure Chemical Industries, Ltd.)). After cell strain HCC827GR5 was cultured, the cells were detached by trypsin treatment and then collected. The number of cells in the cell suspension was measured, and the cells were suspended in RPMI1640 medium containing 10% fetal bovine serum. The suspension was adjusted to have a concentration of 100,000 cells/mL. 50 μL of each cell suspension was added to each well of SUMILON 96-well plate (manufactured by Sumitomo Bakelite Co., Ltd.) (5,000 cells/well), and culture was carried out. […] On the 7th day from the initiation of treatment, 50 μL of CellTiter Glo (manufactured by Promega Corp.) was added to each well and then the culture system was stirred for 2 minutes with a plate mixer. The plate was left to stand for 30 minutes under light-shielded conditions. An aliquot of 120 μL was taken from each well and was transferred onto a black microplate, and the luminescence values were measured with a luminometer.

[2] = tested on: cell strain HCC827GR5 transplanted in nude mice; assay: Antitumor effect on cell strain HCC827GR5 transplanted in nude mice; assay type: in vivo, nude mice (BALB/cAJcl-nu/nu); settings: for Estimated tumor volume Average value: HER3-ADC (1) 10 mg/kg i.p. once a week, erlotinib 25 mg/kg oral six times a week; for Tumor growth inhibition ratio (%): compared with the control group, HER3-ADC (1) 10 mg/kg i.p., erlotinib 25 mg/kg oral
Description: Cell strain HCC827GR5 was cultured in RPMI1640 medium (manufactured by Sigma-Aldrich Corp.) containing R10 medium (10% fetal bovine serum and 1% penicillin-streptomycin B (manufactured by Wako Pure Chemical Industries, Ltd.)) and erlotinib at a final concentration of 1 μM, subsequently the cells were detached by trypsin treatment and then collected. The number of cells in the cell suspension was measured, and the cells were suspended in R10 medium. The suspension was adjusted to have a concentration of 75,000,000 cells/mL. 100 μL of the cell suspension thus prepared (7,500,000 cells) was transplanted subcutaneously into the ventral region of 6-week old female nude mice (BALB/cAJcl-nu/nu), and then after 7 days from tumor transplantation, at which the average value of the estimated […] tumor volume of the transplanted tumors became […], grouping was carried out. Then, drug administration was initiated (day 0). HER3-ADC (1) was dissolved in phosphate buffer saline (PBS), and the solution was adjusted to have a concentration of 1 mg/mL. Erlotinib was dissolved in a hydroxypropylmethyl cellulose (HPMC) solution, and the solution was adjusted to have a concentration of 2.75 mg/mL. To the single-agent treatment groups of each drug, from day 0 to day 49 at the maximum, prepared HER3-ADC (1) was administered intraperitoneally once a week (7 times in total) at a dose of 200 μL/mouse (10 mg/kg), and prepared erlotinib was administered orally six times a week (19 in total) at a dose of 0.18 mL/mouse (25 mg/kg). On the other hand, to the combination treatment group, HER3-ADC (1) and erlotinib were administered from day 0 at the same dose in the same schedule as those of the single-agent treatment groups. A control group, which was not subjected to administration, was also established. For all of the groups, ten mice were used per group. After the initiation of administration, the tumor diameters (major axis and minor axis) were measured twice a week (on days 0, 3, 7, 10, 14, 17, 21, 24, 28, 31, 35, 38, 41, 45, and 49), and the estimated tumor volumes in each group were calculated according to the following formula. Subsequently, the average value of the estimated tumor volume for each group was calculated. Estimated tumor volume (Volume, mm^3)=major axis (mm)×minor axis (mm)^2÷2
Furthermore, the tumor growth inhibition ratio of each group compared with the control group was calculated according to the following formula. Tumor growth inhibition ratio (%)=100−(average value of estimated tumor volume of treatment group÷average value of estimated tumor volume of control group×100)
From the viewpoint of animal ethics, the measurement for the control and erlotinib single-agent treatment groups was terminated at the 21st day since the estimated tumor volume reached 1,200 to 1,500 mm^3. Along with this, the calculation of the tumor growth inhibition ratio (%) was made up to day 21.

cell strain HCC827GR5 [3] = settings: reported in K. Yonesaka et al., Oncogene (2016) 35, 878-886; cited from earlier work
cell strain PC9 = assay: Cell proliferation suppressing activity of osimertinib against cell strain PC9; assay type: cell-based, human; settings: 0.01 μM or higher concentrations of osimertinib; 3rd day of treatment
Description: (§1) Cell strains PC9 and PC9AZDR7 were cultured in RPMI1640 medium (manufactured by Sigma-Aldrich Corp.) containing 10% fetal bovine serum and 1% penicillin-streptomycin B (manufactured by Wako Pure Chemical Industries, Ltd.). PC9AZDR7 was cultured with 100 nM osimertinib added to the medium. After cell strains PC9 and PC9AZDR7 were cultured, the cells were detached by trypsin treatment and then collected. […] Subsequently, 50 μL of each cell suspension was added into each well of SUMILON 96-well plate (manufactured by Sumitomo Bakelite Co., Ltd.) (10,000 cells/well), and culture was carried out. One day after the initiation of culture, osimertinib dilutions, each of which was prepared to have one of various concentrations, or as a negative control, RPMI-1640 medium not containing any drug was added, and culture was carried out. […] The plate was left to stand for 30 minutes under light-shielded conditions. […] The cell proliferation suppressing activity (% of control) of each drug was calculated using the following formula. % of Control=(Average luminescence value in specimen-added wells÷average luminescence value in negative control wells)×100

cell strain PC9AZDR7 = assay: Cell proliferation suppressing activity of osimertinib against cell strain PC9AZDR7; assay type: cell-based, human; settings: 1 μM or lower concentrations of osimertinib; 3rd day of treatment
Description: as §1

[4] = tested on: cell strain PC9AZDR7 transplanted in nude mice; assay: Antitumor effect of combination of HER3-ADC (1) and osimertinib on cell strain PC9AZDR7 transplanted in nude mice; assay type: in vivo, nude mice (BALB/cAJcl-nu/nu); settings: for Estimated tumor volume Average value: HER3-ADC (1) 1 mg/kg i.p. on Day 1, osimertinib 1 mg/kg oral Days 1-5, 8-12, 15-19; for Tumor growth inhibition ratio (%): compared with the control group, HER3-ADC (1) 1 mg/kg i.p., osimertinib 1 mg/kg oral
Description: Cell strain PC9AZDR7 was cultured in RPMI1640 medium (manufactured by Sigma-Aldrich Corp.) containing 10% fetal bovine serum and 1% penicillin-streptomycin B (manufactured by Wako Pure Chemical Industries, Ltd.) and 100 nM osimertinib. After cell strain PC9AZDR7 was cultured, the cells were detached by trypsin treatment and then collected. […] From the next day of grouping (1st day), drug administration was initiated. […] As a control group, a group not receiving any administration was established. […] After the initiation of administration, the tumor diameters (major axis and minor axis) were measured twice a week, and the estimated tumor volume in each group was calculated according to the following formula. Subsequently, the average value of the estimated tumor volume for each group was calculated. […] The tumor growth inhibition ratio of each group compared with the control group was calculated using the following formula.

Compound: CC[C@@]1(O)C(=O)OCc2c1cc1n(c2=O)Cc2c-1nc1cc(F)c(C)c3c1c2[C@@H](NC(=O)CO)CC3
- topoisomerase I inhibitory activity (topoisomerase I): confirmed to have a topoisomerase I inhibitory activity

Compound: C#Cc1cccc(Nc2ncnc3cc(OCCOC)c(OCCOC)cc23)c1 [Erlotinib, erlotinib]
- cell proliferation suppressing activity (% Control) (cell strain HCC827GR5 [1]; 1 μg/mL of erlotinib (so in the source)): 69.2%
- cell proliferation suppressing activity (% Control) (cell strain HCC827GR5 [1]; 3.3 μg/mL of erlotinib (so in the source)): 52.6%
- cell proliferation suppressing activity (% Control) (cell strain HCC827GR5 [1]; 10 μg/mL of erlotinib (so in the source)): 31.7%
- Estimated tumor volume Average value ([2]; Day 0): 124.5 mm^3
- Tumor growth inhibition ratio (%) ([2]; Day 0): 2.7%
- Estimated tumor volume Average value ([2]; Day 3): 189.7 mm^3
- Tumor growth inhibition ratio (%) ([2]; Day 3): 22.0%
- Estimated tumor volume Average value ([2]; Day 7): 347.5 mm^3
- Tumor growth inhibition ratio (%) ([2]; Day 7): 26.0%
- Estimated tumor volume Average value ([2]; Day 10): 420.0 mm^3
- Tumor growth inhibition ratio (%) ([2]; Day 10): 29.1%
- Estimated tumor volume Average value ([2]; Day 14): 747.8 mm^3
- Tumor growth inhibition ratio (%) ([2]; Day 14): 14.5%
- Estimated tumor volume Average value ([2]; Day 17): 1117.9 mm^3
- Tumor growth inhibition ratio (%) ([2]; Day 17): 20.4%
- Estimated tumor volume Average value ([2]; Day 21): 1225.5 mm^3
- Tumor growth inhibition ratio (%) ([2]; Day 21): 21.1%
- antitumor effect / efficacy (in words) ([2]; on Day 21, Dunnet's Multiple Comparison test p<0.001 for the significant effects): did not exhibit efficacy
- sensitivity to alone therapy (cell strain HCC827GR5 [3]): not to exhibit strong sensitivity

Compound: C=CC(=O)Nc1cc(Nc2nccc(-c3cn(C)c4ccccc34)n2)c(OC)cc1N(C)CCN(C)C [Osimertinib, osimertinib]
- cell proliferation suppressing activity (cell strain PC9): Strong cell proliferation suppressing activities
- cell proliferation suppressing activity (cell strain PC9AZDR7): no cell proliferation suppressing activity was observed
- Estimated tumor volume Average value ([4]; Day 0): 64.2 mm^3
- Tumor growth inhibition ratio (%) ([4]; Day 0): 5.3%
- Estimated tumor volume Average value ([4]; Day 5): 249.3 mm^3
- Tumor growth inhibition ratio (%) ([4]; Day 5): 6.0%
- Estimated tumor volume Average value ([4]; Day 8): 271.7 mm^3
- Tumor growth inhibition ratio (%) ([4]; Day 8): 5.8%
- Estimated tumor volume Average value ([4]; Day 11): 357.2 mm^3
- Tumor growth inhibition ratio (%) ([4]; Day 11): 17.9%
- Estimated tumor volume Average value ([4]; Day 16): 533.4 mm^3
- Tumor growth inhibition ratio (%) ([4]; Day 16): 6.7%
- Estimated tumor volume Average value ([4]; Day 18): 650.7 mm^3
- Tumor growth inhibition ratio (%) ([4]; Day 18): 9.8%
- Estimated tumor volume Average value ([4]; Day 21): 710.6 mm^3
- Tumor growth inhibition ratio (%) ([4]; Day 21): 27.7%
